{
  "source": "patent US20160115540A1",
  "about": "“PRODRUGS AND DRUGS” (Biogen MA Inc., priority 2013, published 2016)",
  "system": "blood and tissues",
  "experiment": "Transcriptional profiling, acute (single) dosing, EAE mice: blood and tissues",
  "type": "in vivo",
  "settings": "100MMF-vs-Veh",
  "from_the_text": "EAE induction is generally performed by immunization with brain extracts, CNS proteins (such as myelin basic protein), or peptides from such protein emulsified in an adjuvant such as complete Freund's adjuvant, e.g., as described in Linker et al., Brain. 2011 March 134(Pt3): 678-92. […] FIG. 17 depicts exemplary immunophenotyping panels used to analyze various immune cell populations (e.g., T cells, T regulatory cells, NK cells, B cells, myeloid cells). […] The number of independent mice whose tissues were harvested for transcript profiling studies and whose data passed QC is shown in TABLE 15. Animals were exposed to CO2 and whole blood collected via cardiac puncture. Two 100 μl aliquots of whole blood were collected in 1.5 mL microcentrifuge tubes and snap frozen in liquid nitrogen. Peripheral (liver, spleen, kidney and jejunum) and CNS brain (cerebellum, hippocampus, striatum and cortex) tissues were harvested and snap frozen in liquid nitrogen, with special care taken to collect tissues of similar size and from the same location. All samples were stored at -80° C. until RNA extraction was conducted. For RNA preparation, frozen tissues were placed in 2 mL RNAse-free 96-well blocks with 1.5 mL QIAzol Lysis Reagent (QIAgen) and a 3.2 mm stainless steel bead (BioSpec Products, Bartlesville, Okla.). Tissues were disrupted for four cycles of 45 seconds in a Mini-Beadbeater (Biospec Products). RNA was extracted in chloroform and the aqueous phase was mixed with an equal volume of 70% ethanol. Extracted RNA was applied to RNeasy 96 plates and purified by the spin method according to the manufacturer's protocol (RNeasy 96 Universal Tissue Protocol, QIAgen, Hilden Germany). 50 ul of snap frozen mouse blood was re-suspended in lysis buffer with proteinase K and arrayed into deep-well plates for automated RNA extraction. RNA extractions were completed on […] (Beckman Coulter, Indianapolis, Ind.) using Agencourt RNAdvance Blood kit (Part number A35604) according to the manufacturer's specifications. RNA integrity was assessed using the HT RNA reagent kit (Part number 760410, Caliper Life Sciences, Hopkinton, Mass.) using a LabChip GX (PerkinElmer, Waltham, Mass.). RNA samples with a RQS score of >8.0 were considered high quality for downstream microarray processing. […] Washing and staining of the hybridized arrays were completed as described in the GeneChip Expression analysis technical manual for HT plate arrays using the Genechip® Array Station (Affymetrix, Santa Clara, Calif.) with modifications as described in […] et al. The processed GeneChip® plate arrays were scanned using GeneTitan scanner (Affymetrix, Santa Clara, Calif.). Affymetrix scans were subject to quality control (QC) measures. These tests included a visual inspection of the distribution of raw signal intensities and an assessment of RNA degradation, relative log expression (RLE), and normalized unscaled standard error (NUSE). All sample scans that passed these QC metrics were included in the analysis. […] Nucleic Acids Res 2003; 31:e15; Li C, et al. Genome Biol 2001; 2:[…]0032). […] Stat Appl Genet Mol Biol 2004; 3:Article3). […] Springer Science+Business Media 2005). […] Generally, no distinct sample groupings were apparent from this analysis; however, in the following cohorts, differences in EAE severity across the mice were manifest in global gene expression patterns: An example of this animal grouping is shown in FIG. 33 for the spinal cord from the chronically-dosed 7 h EAE mice. […] Three distinct groups of mice result from unsupervised clustering, and these animal groups correlate with the cumulative EAE score. […] Subsequent analyses for the cohorts listed above only included those animals with the most severe EAE scores; however, for the cohorts 'Spinal Cord, Acute Dosing, 7 h' and 'Spleen, Acute Dosing, 12 h,' there were an insufficient number of mice in the different treatment groups to perform such a sub-analysis. […]",
  "note": "Where a name gives a salt, the structure may show the parent alone.",
  "data": [
    {"smiles": "COC(=O)/C=C/C(=O)O", "note": "[MMF, monomethyl fumarate]", "values": [
      {"measurement": "FC Gm6159 /// Hnrnpr 1437526_PM_x_at", "setting": "spleen, 7 h", "result": 1.50},
      {"measurement": "FC Gsto1 1456036_PM_x_at", "setting": "spleen, 7 h", "result": 1.51},
      {"measurement": "FC Hadhb 1437172_PM_x_at", "setting": "spleen, 7 h", "result": 1.51},
      {"measurement": "FC Herpud2 1439424_PM_x_at", "setting": "spleen, 7 h", "result": 1.62},
      {"measurement": "FC Higd1c /// Mettl7a1 /// Mettl7a2 1434150_PM_a_at", "setting": "spleen, 7 h", "result": 2.40},
      {"measurement": "FC Higd1c /// Mettl7a2 1456510_PM_x_at", "setting": "spleen, 7 h", "result": 1.61},
      {"measurement": "FC Homer1 1437363_PM_at", "setting": "spleen, 7 h", "result": 1.60},
      {"measurement": "FC Itsn1 1435884_PM_at", "setting": "spleen, 7 h", "result": 1.69},
      {"measurement": "FC Kctd3 1455816_PM_a_at", "setting": "spleen, 7 h", "result": 1.51},
      {"measurement": "FC Kif22 1437716_PM_x_at", "setting": "spleen, 7 h", "result": 1.68},
      {"measurement": "FC Klhl7 1428091_PM_at", "setting": "spleen, 7 h", "result": 1.77},
      {"measurement": "FC LOC100047324 /// Sesn1 1438931_PM_s_at", "setting": "spleen, 7 h", "result": 1.52},
      {"measurement": "FC Lmcd1 1424596_PM_s_at", "setting": "spleen, 7 h", "result": 1.64},
      {"measurement": "FC Lnp 1453035_PM_at", "setting": "spleen, 7 h", "result": 1.69},
      {"measurement": "FC Lrrtm2 1455489_PM_at", "setting": "spleen, 7 h", "result": 1.50},
      {"measurement": "FC Mcm4 1436708_PM_x_at", "setting": "spleen, 7 h", "result": 1.72},
      {"measurement": "FC Metap2 1434120_PM_a_at", "setting": "spleen, 7 h", "result": 1.52},
      {"measurement": "FC Mettl7a1 1454858_PM_x_at", "setting": "spleen, 7 h", "result": 1.63},
      {"measurement": "FC Mkrn1 1434853_PM_x_at", "setting": "spleen, 7 h", "result": 1.62},
      {"measurement": "FC Myef2 1425350_PM_a_at", "setting": "spleen, 7 h", "result": 1.59},
      {"measurement": "FC Myof 1427318_PM_s_at", "setting": "spleen, 7 h", "result": 1.52},
      {"measurement": "FC Ncapd3 1454952_PM_s_at", "setting": "spleen, 7 h", "result": 1.66},
      {"measurement": "FC Nfkb1 1427705_PM_a_at", "setting": "spleen, 7 h", "result": 1.52},
      {"measurement": "FC Nqo1 (1423627_PM_at)", "setting": "spleen, 7 h", "result": 3.23},
      {"measurement": "FC Nudt12 1453139_PM_at", "setting": "spleen, 7 h", "result": 2.17},
      {"measurement": "FC Otud5 1438985_PM_x_at", "setting": "spleen, 7 h", "result": 1.51},
      {"measurement": "FC Pik3r1 1425514_PM_at", "setting": "spleen, 7 h", "result": 1.62},
      {"measurement": "FC Pir (1429001_PM_at)", "setting": "spleen, 7 h", "result": 2.78},
      {"measurement": "FC Polh 1447837_PM_x_at", "setting": "spleen, 7 h", "result": 1.64},
      {"measurement": "FC Prkaca 1447720_PM_x_at", "setting": "spleen, 7 h", "result": 1.53},
      {"measurement": "FC Prkar1b 1440132_PM_s_at", "setting": "spleen, 7 h", "result": 1.50},
      {"measurement": "FC Prpf40a 1429436_PM_at", "setting": "spleen, 7 h", "result": 1.65},
      {"measurement": "FC Psmc6 1417770_PM_s_at", "setting": "spleen, 7 h", "result": 1.77},
      {"measurement": "FC Psmd9 1447670_PM_at", "setting": "spleen, 7 h", "result": 1.73},
      {"measurement": "FC Rab6 1447776_PM_x_at", "setting": "spleen, 7 h", "result": 1.51},
      {"measurement": "FC Rad21 1455938_PM_x_at", "setting": "spleen, 7 h", "result": 1.58},
      {"measurement": "FC Ranbp2 1422621_PM_at", "setting": "spleen, 7 h", "result": 1.50},
      {"measurement": "FC Ranbp2 1445883_PM_at", "setting": "spleen, 7 h", "result": 1.61},
      {"measurement": "FC Rbm39 1442745_PM_x_at", "setting": "spleen, 7 h", "result": 1.54},
      {"measurement": "FC Rdx 1416179_PM_a_at", "setting": "spleen, 7 h", "result": 1.53},
      {"measurement": "FC Rif1 1429490_PM_at", "setting": "spleen, 7 h", "result": 1.66},
      {"measurement": "FC Rlim 1439403_PM_x_at", "setting": "spleen, 7 h", "result": 1.51},
      {"measurement": "FC Sec24a 1433934_PM_at", "setting": "spleen, 7 h", "result": 1.50},
      {"measurement": "FC Smc4 1427275_PM_at", "setting": "spleen, 7 h", "result": 1.56},
      {"measurement": "FC Smc6 1460069_PM_at", "setting": "spleen, 7 h", "result": 1.52},
      {"measurement": "FC Smpd4 1429530_PM_a_at", "setting": "spleen, 7 h", "result": 2.04},
      {"measurement": "FC Sorbs1 1436737_PM_a_at", "setting": "spleen, 7 h", "result": 1.71},
      {"measurement": "FC Sp4 1437508_PM_at", "setting": "spleen, 7 h", "result": 1.67},
      {"measurement": "FC Srxn1 (1419942_PM_at)", "setting": "spleen, 7 h", "result": 1.82},
      {"measurement": "FC Srxn1 (1426875_PM_s_at)", "setting": "spleen, 7 h", "result": 1.94},
      {"measurement": "FC Srxn1 (1451680_PM_at)", "setting": "spleen, 7 h", "result": 1.68},
      {"measurement": "FC Suz12 1449661_PM_at", "setting": "spleen, 7 h", "result": 1.56},
      {"measurement": "FC Svip 1429146_PM_at", "setting": "spleen, 7 h", "result": 1.59},
      {"measurement": "FC Tceb1 1452593_PM_a_at", "setting": "spleen, 7 h", "result": 1.50},
      {"measurement": "FC Terf1 1443527_PM_at", "setting": "spleen, 7 h", "result": 1.71},
      {"measurement": "FC Thoc1 1420042_PM_at", "setting": "spleen, 7 h", "result": 1.89},
      {"measurement": "FC Tmem41b 1428586_PM_at", "setting": "spleen, 7 h", "result": 1.88},
      {"measurement": "FC Tmem64 1433735_PM_a_at", "setting": "spleen, 7 h", "result": 1.70},
      {"measurement": "FC Tnks2 1447522_PM_s_at", "setting": "spleen, 7 h", "result": 1.63},
      {"measurement": "FC Tspyl1 1415908_PM_at", "setting": "spleen, 7 h", "result": 1.66},
      {"measurement": "FC Ttc14 1437878_PM_s_at", "setting": "spleen, 7 h", "result": 1.53},
      {"measurement": "FC Txnl1 1435235_PM_at", "setting": "spleen, 7 h", "result": 1.59},
      {"measurement": "FC Usp14 1437714_PM_x_at", "setting": "spleen, 7 h", "result": 1.57},
      {"measurement": "FC Zfp800 1456790_PM_at", "setting": "spleen, 7 h", "result": 1.83},
      {"measurement": "FC Zfx 1419565_PM_a_at", "setting": "spleen, 7 h", "result": 1.50},
      {"measurement": "FC 4930427A07Rik 1455818_PM_at", "setting": "whole blood, 7 h", "result": "−1.59"},
      {"measurement": "FC Klra3 /// Klra9 1425436_PM_x_at", "setting": "whole blood, 7 h", "result": "−2.05"},
      {"measurement": "FC Klra8 1425417_PM_x_at", "setting": "whole blood, 7 h", "result": "−2.10"},
      {"measurement": "FC Rnf128 (1449036_PM_at)", "setting": "whole blood, 7 h", "result": 1.54},
      {"measurement": "FC Serpinb6b 1422804_PM_at", "setting": "whole blood, 7 h", "result": "−1.64"},
      {"measurement": "FC Xpc 1422532_PM_at", "setting": "whole blood, 7 h", "result": 1.59},
      {"measurement": "FC 1445666_PM_at", "setting": "whole blood, 12 h", "result": 2.14},
      {"measurement": "FC Prdm2 1453068_PM_at", "setting": "whole blood, 12 h", "result": 1.70}
    ]}
  ]
}
